{"source": "patent US12171753B2", "about": "“Crystalline forms of ALDH2 modulators” (SOPHROSYNE PHARMACEUTICALS LIMITED, priority 2021, dated 2024)", "key": {"[1]": {"test": "Polymorphic screen: suspending 50 mg of compound in solvent, suspension outcome", "format": "physicochemical", "settings": "left overnight", "experimental": "The polymorphic screening of the compound of Formula IV-I was performed by suspending 50 mg of the compound of Formula IV-I in each of the solvents as described in Table 12 at a volume of 1.5 mL for all but water (1 mL) in a separate vial. The vials were sealed and the suspensions were left overnight. In the following day, the vials with the compound of Formula IV-I dissolved were opened and the solutions were left to evaporate at room temperature. The solid materials were collected after the complete evaporation of the solvent. In the vials where the compound of Formula IV-I was not fully dissolved, the mixtures were left to slurrying for another 96 h. The slurries were filtered and the obtained solids were analyzed."}, "[2]": {"tested_on": "subject suffering from alcohol use disorder", "test": "Pharmaceutical composition administered to a subject suffering from alcohol use disorder", "format": "in vivo", "experimental": "(§1) [drawing 31] and trifluorotriiodobenzene is administered to a subject suffering from alcohol use disorder. […] The subject is also found to have less cravings on the Visual Analogue Scale of Craving, which has 4 questions to assess domains of alcohol craving: the intention to drink, loss of control, relief craving, and urge intensity with a 0-20 point visual analogue scale for each item, with 0 indicating no craving and 20 indicating severe craving.\nas §1, with “32]” for “31] and trifluorotriiodobenzene”"}}}
{"compound": "C[S+]([O-])C(=O)N1CCC(O)CC1", "note": "(centres unmarked) [Formula IV-I, 1-S-Methyl 1-S-oxo 4-hydroxy-1-piperidinecarbothioate]", "values": [{"measurement": "Suspension outcome", "setting": "[1]; 50 mg in 1 mL H2O", "value": "Dissolved"}, {"measurement": "Suspension outcome", "setting": "[1]; 50 mg in 1.5 mL 1-propanol", "value": "Slurry"}, {"measurement": "Suspension outcome", "setting": "[1]; 50 mg in 1.5 mL 2-propanol", "value": "Slurry"}, {"measurement": "Suspension outcome", "setting": "[1]; 50 mg in 1.5 mL Acetone", "value": "Slurry"}, {"measurement": "Suspension outcome", "setting": "[1]; 50 mg in 1.5 mL Acetonitrile", "value": "Slurry"}, {"measurement": "Suspension outcome", "setting": "[1]; 50 mg in 1.5 mL Chloroform", "value": "Dissolved"}, {"measurement": "Suspension outcome", "setting": "[1]; 50 mg in 1.5 mL Cyclohexane", "value": "Slurry"}, {"measurement": "Suspension outcome", "setting": "[1]; 50 mg in 1.5 mL Dichloromethane", "value": "Dissolved"}, {"measurement": "Suspension outcome", "setting": "[1]; 50 mg in 1.5 mL EtOAc", "value": "Slurry"}, {"measurement": "Suspension outcome", "setting": "[1]; 50 mg in 1.5 mL EtOH", "value": "Dissolved"}, {"measurement": "Suspension outcome", "setting": "[1]; 50 mg in 1.5 mL Ethyl ether", "value": "Slurry"}, {"measurement": "Suspension outcome", "setting": "[1]; 50 mg in 1.5 mL Isopropyl acetate", "value": "Slurry"}, {"measurement": "Suspension outcome", "setting": "[1]; 50 mg in 1.5 mL MeOH", "value": "Dissolved"}, {"measurement": "Suspension outcome", "setting": "[1]; 50 mg in 1.5 mL Methyl acetate", "value": "Slurry"}, {"measurement": "Suspension outcome", "setting": "[1]; 50 mg in 1.5 mL Nitromethane", "value": "Dissolved"}, {"measurement": "Suspension outcome", "setting": "[1]; 50 mg in 1.5 mL Octane", "value": "Slurry"}, {"measurement": "Suspension outcome", "setting": "[1]; 50 mg in 1.5 mL THF", "value": "Slurry"}, {"measurement": "Suspension outcome", "setting": "[1]; 50 mg in 1.5 mL Toluene", "value": "Slurry"}, {"measurement": "Suspension outcome", "setting": "[1]; 50 mg in 1.5 mL n-hexane", "value": "Slurry"}, {"measurement": "Suspension outcome", "setting": "[1]; 50 mg in 1.5 mL n-pentane", "value": "Slurry"}]}
{"compound": "C[S+]([O-])C(=O)N1CCC(O)CC1", "note": "(centres unmarked) [drawing 31]", "values": [{"measurement": "Cravings on the Visual Analogue Scale of Craving", "setting": "[2]; 4 questions, 0-20 point scale per item", "value": "less cravings"}, {"measurement": "Craving scale after 2 weeks of treatment", "setting": "[2]; after 2 weeks of being treated", "value": "reduction in the craving scale"}, {"measurement": "Alcohol consumed over a 90 day period", "setting": "[2]; compared to a 90 day period prior to treatment", "value": "consume less alcohol"}, {"measurement": "Percentage of no heavy drinking days", "setting": "[2]; during the period of treatment (e.g., 1 to 13 weeks)", "value": "increase in the percentage of no heavy drinking days"}, {"measurement": "Number of drinks consumed in the natural environment", "setting": "[2]; first 13 days of medication period, timeline follow-back interview", "value": "reduction in the number of drinks"}, {"measurement": "Alcohol drinking of the treated subject", "setting": "[2]; subject with alcohol use disorder", "value": "drink less or no alcohol"}]}
